{
  "source": "patent US20240327364A1",
  "about": "“THERAPEUTIC TARGETING OF GPR68 TO INDUCE FERROPTOSIS” (University Of Maryland, Baltimore, priority 2023, published 2024)",
  "key": {"CLK4": {"biological_target": "CLK4 (Homo sapiens, UniProt Q9HAZ1)", "sequence (Q9HAZ1 whole entry)": "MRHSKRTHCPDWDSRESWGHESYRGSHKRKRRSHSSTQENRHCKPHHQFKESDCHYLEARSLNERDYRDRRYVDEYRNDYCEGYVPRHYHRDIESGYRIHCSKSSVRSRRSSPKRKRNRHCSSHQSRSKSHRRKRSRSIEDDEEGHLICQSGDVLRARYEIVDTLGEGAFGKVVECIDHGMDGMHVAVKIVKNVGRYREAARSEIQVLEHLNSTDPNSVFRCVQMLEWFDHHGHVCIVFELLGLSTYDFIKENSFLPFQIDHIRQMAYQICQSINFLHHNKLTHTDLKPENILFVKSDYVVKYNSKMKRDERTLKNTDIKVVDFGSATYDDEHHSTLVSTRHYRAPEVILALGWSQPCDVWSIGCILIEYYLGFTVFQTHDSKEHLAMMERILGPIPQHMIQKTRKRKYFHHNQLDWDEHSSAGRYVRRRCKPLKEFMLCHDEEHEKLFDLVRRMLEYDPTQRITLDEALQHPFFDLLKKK", "assay": "KinomeScan", "assay_type": "binding", "settings": "read-out: % Control"}, "ADRB3": {"biological_target": "T1, ADRB3 (Homo sapiens, UniProt P13945)", "T1 construct": "host or cells: Chem-1 cells with promiscuous Gα15", "assay": "GPCR Profiler", "assay_type": "cell-based", "settings": "12.5 uM"}, "P2Y2": {"biological_target": "T2, P2Y2 (Homo sapiens, UniProt P41231)", "T2 construct": "host or cells: Chem-1 cells expressing Gα15", "assay": "GPCR Profiler", "assay_type": "cell-based"}, "NDR2": {"biological_target": "T3, NDR2 (Homo sapiens, UniProt Q9Y2H1)", "T3 construct": "purchased DiscoveRx", "assay": "KinomeScan", "assay_type": "binding", "settings": "read-out: % Control"}, "MAP3K3": {"biological_target": "T4, MAP3K3 (Homo sapiens, UniProt Q99759)", "T4 construct": "purchased DiscoveRx (Fremont, CA)", "assay": "KinomeScan", "assay_type": "binding", "settings": "read-out: % Control"}, "MAP3K2": {"biological_target": "T5, MAP3K2 (Homo sapiens, UniProt Q9Y2U5)", "T5 construct": "purchased DiscoveRx (Fremont, CA)", "assay": "KinomeScan", "assay_type": "binding", "settings": "read-out: % Control"}, "ADRA1A": {"biological_target": "T6, ADRA1A (Homo sapiens, UniProt P35348)", "T6 construct": "host or cells: Chem-1 cells with promiscuous Gα15", "assay": "GPCR Profiler", "assay_type": "cell-based"}, "CGRP1": {"biological_target": "T7, CGRP1 (Homo sapiens, UniProt O60894+Q16602)", "T7 construct": "host or cells: Chem-1 cells with Gα15", "T7 sequence (Q16602 23-461)": "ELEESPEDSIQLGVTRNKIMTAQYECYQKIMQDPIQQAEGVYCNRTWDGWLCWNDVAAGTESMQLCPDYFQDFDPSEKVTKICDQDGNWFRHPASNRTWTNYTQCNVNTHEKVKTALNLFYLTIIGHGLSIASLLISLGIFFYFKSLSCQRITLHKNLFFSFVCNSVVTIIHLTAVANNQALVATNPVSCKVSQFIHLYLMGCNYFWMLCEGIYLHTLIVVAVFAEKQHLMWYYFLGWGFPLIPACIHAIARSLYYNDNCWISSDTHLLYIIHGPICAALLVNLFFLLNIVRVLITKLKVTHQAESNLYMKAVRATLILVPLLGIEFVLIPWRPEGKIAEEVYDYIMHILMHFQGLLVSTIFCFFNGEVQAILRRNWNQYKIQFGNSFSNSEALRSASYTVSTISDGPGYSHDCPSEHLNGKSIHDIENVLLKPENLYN", "T7 sequence (O60894 27-148 partner)": "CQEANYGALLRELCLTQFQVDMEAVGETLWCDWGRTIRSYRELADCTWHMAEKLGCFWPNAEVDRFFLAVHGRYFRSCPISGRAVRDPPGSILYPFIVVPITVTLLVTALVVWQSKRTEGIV", "assay": "GPCR Profiler", "assay_type": "cell-based"}, "CSNK1G1": {"biological_target": "CSNK1G1 (Homo sapiens, UniProt Q9HCP0)", "sequence (Q9HCP0 whole entry)": "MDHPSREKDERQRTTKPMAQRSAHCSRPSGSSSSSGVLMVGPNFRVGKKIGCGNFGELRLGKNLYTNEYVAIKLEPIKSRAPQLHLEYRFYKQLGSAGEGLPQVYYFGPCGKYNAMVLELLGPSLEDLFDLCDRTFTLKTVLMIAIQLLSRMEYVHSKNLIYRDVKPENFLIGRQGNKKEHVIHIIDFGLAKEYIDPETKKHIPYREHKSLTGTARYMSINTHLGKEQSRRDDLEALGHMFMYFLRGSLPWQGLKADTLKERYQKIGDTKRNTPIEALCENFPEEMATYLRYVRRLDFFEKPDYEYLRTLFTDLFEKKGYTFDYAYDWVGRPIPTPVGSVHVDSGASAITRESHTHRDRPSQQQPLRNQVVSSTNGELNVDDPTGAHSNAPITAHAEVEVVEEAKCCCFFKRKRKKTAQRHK", "assay": "KinomeScan", "assay_type": "binding", "settings": "read-out: % Control"}, "RET(V804M)": {"biological_target": "T8, RET(V804M) (Homo sapiens, UniProt P07949, V804M)", "T8 construct": "purchased DiscoveRx (Fremont, CA)", "T8 sequence (P07949 29-1114 V804M)": "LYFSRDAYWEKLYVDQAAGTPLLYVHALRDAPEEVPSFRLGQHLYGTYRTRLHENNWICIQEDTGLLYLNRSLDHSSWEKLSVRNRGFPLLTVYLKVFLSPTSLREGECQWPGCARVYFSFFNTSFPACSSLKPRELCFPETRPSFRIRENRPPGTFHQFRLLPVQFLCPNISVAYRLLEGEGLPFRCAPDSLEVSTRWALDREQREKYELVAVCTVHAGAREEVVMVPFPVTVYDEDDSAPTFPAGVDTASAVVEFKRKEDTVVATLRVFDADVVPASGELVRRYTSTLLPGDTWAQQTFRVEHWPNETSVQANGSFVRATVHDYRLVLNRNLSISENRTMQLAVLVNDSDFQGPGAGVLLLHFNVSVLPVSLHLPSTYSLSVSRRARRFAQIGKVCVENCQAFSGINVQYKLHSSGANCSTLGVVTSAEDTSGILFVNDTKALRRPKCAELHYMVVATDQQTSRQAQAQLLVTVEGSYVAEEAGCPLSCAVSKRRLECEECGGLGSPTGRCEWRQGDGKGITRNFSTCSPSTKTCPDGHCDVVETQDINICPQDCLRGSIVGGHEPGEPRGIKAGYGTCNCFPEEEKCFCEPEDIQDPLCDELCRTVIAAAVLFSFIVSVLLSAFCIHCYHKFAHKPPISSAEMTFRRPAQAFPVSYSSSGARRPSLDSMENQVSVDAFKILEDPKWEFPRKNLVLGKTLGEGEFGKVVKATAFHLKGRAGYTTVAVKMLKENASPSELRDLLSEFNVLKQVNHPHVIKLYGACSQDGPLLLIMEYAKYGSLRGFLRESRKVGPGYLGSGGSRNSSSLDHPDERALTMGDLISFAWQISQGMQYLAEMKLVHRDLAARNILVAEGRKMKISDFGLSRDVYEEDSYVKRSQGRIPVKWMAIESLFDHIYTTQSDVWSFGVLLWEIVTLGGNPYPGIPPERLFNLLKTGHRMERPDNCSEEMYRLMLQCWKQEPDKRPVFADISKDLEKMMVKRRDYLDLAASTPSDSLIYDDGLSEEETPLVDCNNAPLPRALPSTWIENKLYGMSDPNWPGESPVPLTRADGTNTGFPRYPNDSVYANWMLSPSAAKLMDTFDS", "assay": "KinomeScan", "assay_type": "binding", "settings": "read-out: % Control"}, "SRPK1": {"biological_target": "T9, SRPK1 (Homo sapiens, UniProt Q96SB4)", "T9 construct": "purchased DiscoveRx (Fremont, CA)", "T9 sequence (Q96SB4 whole entry)": "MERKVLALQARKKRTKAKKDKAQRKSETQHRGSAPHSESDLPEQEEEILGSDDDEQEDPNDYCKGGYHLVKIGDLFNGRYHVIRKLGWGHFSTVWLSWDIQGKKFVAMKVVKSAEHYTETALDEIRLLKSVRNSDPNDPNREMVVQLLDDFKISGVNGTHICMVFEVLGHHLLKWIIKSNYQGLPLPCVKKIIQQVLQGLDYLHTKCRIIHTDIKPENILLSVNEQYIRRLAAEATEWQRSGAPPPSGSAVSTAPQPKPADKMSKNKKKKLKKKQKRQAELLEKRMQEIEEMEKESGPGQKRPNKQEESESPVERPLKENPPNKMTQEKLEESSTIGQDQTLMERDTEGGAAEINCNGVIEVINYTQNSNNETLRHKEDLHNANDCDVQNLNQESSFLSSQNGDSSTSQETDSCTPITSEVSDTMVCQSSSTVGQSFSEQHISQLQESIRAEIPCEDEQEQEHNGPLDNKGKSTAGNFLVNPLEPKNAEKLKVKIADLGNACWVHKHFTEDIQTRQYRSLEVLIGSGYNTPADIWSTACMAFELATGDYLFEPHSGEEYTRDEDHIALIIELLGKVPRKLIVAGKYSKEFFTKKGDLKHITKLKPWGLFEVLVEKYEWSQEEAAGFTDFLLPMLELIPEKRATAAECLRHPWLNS", "assay": "KinomeScan", "assay_type": "binding", "settings": "read-out: % Control"}, "RIOK3": {"biological_target": "T10, RIOK3 (Homo sapiens, UniProt O14730)", "T10 construct": "purchased DiscoveRx (Fremont, CA)", "T10 sequence (O14730 whole entry)": "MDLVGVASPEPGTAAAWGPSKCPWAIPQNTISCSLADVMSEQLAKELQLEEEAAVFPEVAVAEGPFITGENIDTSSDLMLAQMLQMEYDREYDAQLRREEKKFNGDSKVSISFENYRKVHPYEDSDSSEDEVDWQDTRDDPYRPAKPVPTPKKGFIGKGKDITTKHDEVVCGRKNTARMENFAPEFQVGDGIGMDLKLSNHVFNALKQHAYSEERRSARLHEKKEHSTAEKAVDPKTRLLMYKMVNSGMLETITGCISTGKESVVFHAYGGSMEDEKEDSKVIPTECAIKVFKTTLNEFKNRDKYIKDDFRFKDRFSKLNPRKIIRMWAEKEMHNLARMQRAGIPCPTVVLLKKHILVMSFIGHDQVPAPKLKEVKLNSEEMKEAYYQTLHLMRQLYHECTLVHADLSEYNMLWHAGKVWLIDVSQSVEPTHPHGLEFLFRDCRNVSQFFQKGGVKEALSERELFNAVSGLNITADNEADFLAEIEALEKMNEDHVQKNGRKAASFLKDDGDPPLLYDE", "assay": "KinomeScan", "assay_type": "binding", "settings": "read-out: % Control"}, "ULK1": {"biological_target": "T11, ULK1 (Homo sapiens, UniProt O75385)", "T11 construct": "purchased DiscoveRx", "assay": "KinomeScan", "assay_type": "binding", "settings": "read-out: % Control"}, "CDKL5": {"biological_target": "CDKL5 (Homo sapiens, UniProt O76039)", "sequence (O76039 whole entry)": "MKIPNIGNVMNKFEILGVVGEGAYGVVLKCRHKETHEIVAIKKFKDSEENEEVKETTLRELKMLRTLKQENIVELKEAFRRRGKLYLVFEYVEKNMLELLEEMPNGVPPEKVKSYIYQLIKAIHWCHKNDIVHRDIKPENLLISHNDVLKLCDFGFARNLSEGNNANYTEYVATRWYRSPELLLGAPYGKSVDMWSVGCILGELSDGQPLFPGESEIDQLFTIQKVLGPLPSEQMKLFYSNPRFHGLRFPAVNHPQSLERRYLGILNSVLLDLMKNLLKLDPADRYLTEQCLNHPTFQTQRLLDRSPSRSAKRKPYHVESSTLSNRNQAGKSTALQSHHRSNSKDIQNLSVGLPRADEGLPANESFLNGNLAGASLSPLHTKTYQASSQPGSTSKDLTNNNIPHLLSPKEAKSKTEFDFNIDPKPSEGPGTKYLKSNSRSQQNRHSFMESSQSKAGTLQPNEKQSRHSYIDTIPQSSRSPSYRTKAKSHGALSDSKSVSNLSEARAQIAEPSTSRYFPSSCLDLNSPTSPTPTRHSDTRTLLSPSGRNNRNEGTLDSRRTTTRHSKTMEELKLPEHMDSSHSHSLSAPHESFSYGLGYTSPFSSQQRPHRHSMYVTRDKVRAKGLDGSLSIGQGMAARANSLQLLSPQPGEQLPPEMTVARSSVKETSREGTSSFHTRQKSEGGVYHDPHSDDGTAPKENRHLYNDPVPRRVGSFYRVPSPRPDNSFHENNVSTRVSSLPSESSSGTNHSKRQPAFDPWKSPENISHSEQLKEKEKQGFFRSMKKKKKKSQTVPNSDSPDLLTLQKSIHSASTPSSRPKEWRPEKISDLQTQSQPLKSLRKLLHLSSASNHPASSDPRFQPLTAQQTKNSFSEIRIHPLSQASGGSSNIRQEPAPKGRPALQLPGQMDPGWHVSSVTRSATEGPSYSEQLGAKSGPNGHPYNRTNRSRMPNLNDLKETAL", "assay": "KinomeScan", "assay_type": "binding", "settings": "read-out: % Control"}, "SW480": {"test_system": "SW480", "assay": "Cell Titer-Glo viability, Colon adenocarcinoma", "assay_type": "cell-based", "settings": "72 hours", "description": "(§1) OGM2 kills wide variety of cancer cell types. Cell sensitivity can be classified in to Very Sensitive (LC50<2 μM), Sensitive (LC50=2 to 10 μM), Mildly Sensitive (LC50>10 μM), and Refractory (no killing at 10 μM). The listed established cell were incubated with OGM2 at 2 μM or 10 μM for 72 hours under standard cell culture conditions, and relative cell number was assessed using Cell Titer-Glo Luminescent Cell Viability Assay (Promega™) following the manufacturer's instructions. Luminescence was determined using a Cytation 5 reader and Gen5 software package (BioTek™).\nCancer cells, which are very sensitive to killing by OGM2 (LCs <2 μM), with reported mRNA expression of GPR68 and the related proton sensing receptor GPR4. LC50's (concentrations causing 50% lethality) were determined using CellTiter-Glo (Promega™, G7570). Cells were plated in 12-well plates (CELLTREAT Scientific Products, 229112) in 1 ml of DMEM with high glucose, GlutaMAX, HEPES, or RPMI 1640 with Penicillin-Streptomycin (ThermoFisher™, 10564029, 11875119 and 15140122) and 10% FBS. Cells were incubated overnight at 37° C. in 5% CO2. Then 1 mL of fresh media was added with DMSO, OGM, or positive control (Erastin; APExBIO Technology, LLC, B1524) and cells incubated for 3 days. On the third day, all media was removed, cells were rinsed with 1×PBS, PBS was removed, and 200 μL of 1× Passive Lysis Buffer (Promega™, E1941) was added to each well. […]. […] Plates were briefly spun down and read on a GloMax-Multi Detection System (Promega™).\nThe cells listed in the tables above were incubated with OGM2 at 2 μM or 10 μM for 72 hours under standard cell culture conditions, and relative cell number was assessed using Cell Titer-Glo Luminescent Cell Viability Assay (Promega™) following the manufacturer's instructions. Luminescence was determined using a Cytation 5 reader and Gen5 software package (BioTek™). […] The consensus normalized expression value (“nTPM”=normalize transcript per million) was calculated as the maximum nTPM value for each gene in the two data sources."}, "HT-1080": {"test_system": "HT-1080", "assay": "Cell Titer-Glo viability, Fibrosarcoma", "assay_type": "cell-based", "description": "as §1\n(§2) Cancer cells, which are very sensitive to killing by OGM2 (LCs <2 μM), with reported mRNA expression of GPR68 and the related proton sensing receptor GPR4. LC50's (concentrations causing 50% lethality) were determined using CellTiter-Glo (Promega™, G7570). Cells were plated in 12-well plates (CELLTREAT Scientific Products, 229112) in 1 ml of DMEM with high glucose, GlutaMAX, HEPES, or RPMI 1640 with Penicillin-Streptomycin (ThermoFisher™, 10564029, 11875119 and 15140122) and 10% FBS. Cells were incubated overnight at 37° C. in 5% CO2. Then 1 mL of fresh media was added with DMSO, OGM, or positive control (Erastin; APExBIO Technology, LLC, B1524) and cells incubated for 3 days. On the third day, all media was removed, cells were rinsed with 1×PBS, PBS was removed, and 200 μL of 1× Passive Lysis Buffer (Promega™, E1941) was added to each well. […]. Subsequently, 20 μL of lysate was added to 100 μL CellTiter-Glo™ reagent on a LUMITRAC 200 plate (Greiner™ bio-one, 82050-726). Plates were briefly spun down and read on a GloMax-Multi Detection System (Promega™).\n(§3) The cells listed in the tables above were incubated with OGM2 at 2 μM or 10 μM for 72 hours under standard cell culture conditions, and relative cell number was assessed using Cell Titer-Glo Luminescent Cell Viability Assay (Promega™) following the manufacturer's instructions. Luminescence was determined using a Cytation 5 reader and Gen5 software package (BioTek™). RNA expression of GPR68 and GPR4 in the corresponding cancer cell lines are listed, according to the publicly available The Human Protein Atlas version 22.0 and Ensembl version 103.38 (see proteinatlas.org). The consensus normalized expression value (“nTPM”=normalize transcript per million) was calculated as the maximum nTPM value for each gene in the two data sources."}, "NCI-H460": {"test_system": "NCI-H460", "assay": "Cell Titer-Glo viability, Lung cancer, Large cell", "assay_type": "cell-based", "description": "as §1, §2, §3"}, "[1]": {"biological_target": "T12, 336X-GFP (GPR68 truncation variant) (Homo sapiens, UniProt Q15743)", "T12 construct": "while the full-length (GPR68-GFP) internalizes in response to stimulation; expressed in transfected cells; host or cells: HEK293T", "assay": "SRE-luciferase assay, 336X-GFP transfected HEK293T cells", "assay_type": "cell-based", "settings": "OGM 10 μM", "description": "12-well plates of cells were transfected with 1 μg DNA using Lipofectamine 3000 with sre:luciferase and either the vector backbone, GFP, GPR68, GPR68-GFP, GPR4, or 336X-GFP. After 3 days, these cells were then lysed, and cell extracts were subjected to Steady-Glo luciferase assay (Promega™) according to the manufacturer's instructions. The results were normalized to cell titer, as determined using Cell Titer-Glo luminescence assay (Promega™). For some procedure, the cells were treated in serum-free medium, and were lysed on the third day.\nLoss of internalization can indicate loss of activity or loss of the ability to internalize through beta-arrestin. […] Compared to GFP controls, GPR68-GFP and 336X-GFP transfected cells had higher levels of activity. (n=3 biological replicates done in triplicate). Furthermore, the activity of the truncation variant was still inhibited by OGM. […]"}},
  "data": [
    {"smiles": "CCc1ccc2c(c1)C1(NN=C(c3cccc4ccccc34)S1)C(=O)N2", "note": "(centres unmarked) [OGM1, 5-ethyl-5′-naphthalen-1-ylspiro[1H-indole-3,2′-3H-1,3,4-thiadiazole]-2-one]", "values": [
      {"measurement": "remaining binding at 10 µM", "setting": "CLK4", "result": 88, "unit": "%"},
      {"measurement": "Agonism", "setting": "ADRB3", "result": "−0.2"},
      {"measurement": "Antagonism", "setting": "P2Y2; 10 uM", "result": "−9"},
      {"measurement": "Agonism", "setting": "P2Y2; 12.5 uM", "result": 0.1},
      {"measurement": "remaining binding at 10 µM", "setting": "NDR2", "result": 82, "unit": "%"},
      {"measurement": "remaining binding at 10 µM", "setting": "MAP3K3", "result": 72, "unit": "%"},
      {"measurement": "remaining binding at 10 µM", "setting": "MAP3K2", "result": 92, "unit": "%"},
      {"measurement": "Antagonism", "setting": "ADRA1A; 10 uM", "result": 3},
      {"measurement": "Agonism", "setting": "ADRA1A; 12.5 uM", "result": 1.9},
      {"measurement": "Antagonism", "setting": "CGRP1; 10 uM", "result": "−2.3"},
      {"measurement": "Agonism", "setting": "CGRP1; 12.5 uM", "result": 0.5},
      {"measurement": "remaining binding at 10 µM", "setting": "CSNK1G1", "result": 82, "unit": "%"},
      {"measurement": "remaining binding at 10 µM", "setting": "RET(V804M)", "result": 100, "unit": "%"},
      {"measurement": "remaining binding at 10 µM", "setting": "SRPK1", "result": 77, "unit": "%"},
      {"measurement": "remaining binding at 10 µM", "setting": "RIOK3", "result": 100, "unit": "%"},
      {"measurement": "remaining binding at 10 µM", "setting": "ULK1", "result": 100, "unit": "%"},
      {"measurement": "remaining binding at 10 µM", "setting": "CDKL5", "result": 85, "unit": "%"}
    ]},
    {"smiles": "CCc1ccc2c(c1)C1(NN=C(c3ccccc3)S1)C(=O)N2", "note": "(centres unmarked) [OGM2]", "values": [
      {"measurement": "% Survival 2 μM OGM", "setting": "SW480", "result": 39.8, "unit": "%"},
      {"measurement": "% Survival 10 μM OGM", "setting": "SW480", "result": 25.0, "unit": "%"},
      {"measurement": "CC50", "setting": "SW480; Homo sapiens, SW480, read-out: LC50 (the source's name)", "result": "< 2", "unit": "µM"},
      {"measurement": "Class", "setting": "HT-1080", "result": "Sensitive (Sensitive (LC50=2 to 10 μM))"},
      {"measurement": "% Survival 2 μM OGM", "setting": "HT-1080; 72 hours", "result": 64.2, "unit": "%"},
      {"measurement": "% Survival 10 μM OGM", "setting": "HT-1080; 72 hours", "result": 21.4, "unit": "%"},
      {"measurement": "CC50", "setting": "HT-1080; Homo sapiens, HT-1080, 72 hours, read-out: LC50 (the source's name)", "result": "2 to 10", "unit": "µM"},
      {"measurement": "Class", "setting": "NCI-H460", "result": "Sensitive (Sensitive (LC50=2 to 10 μM))"},
      {"measurement": "% Survival 2 μM OGM", "setting": "NCI-H460; 72 hours", "result": 51.7, "unit": "%"},
      {"measurement": "% Survival 10 μM OGM", "setting": "NCI-H460; 72 hours", "result": 26.5, "unit": "%"},
      {"measurement": "CC50", "setting": "NCI-H460; Homo sapiens, NCI-H460, 72 hours, read-out: LC50 (the source's name)", "result": "2 to 10", "unit": "µM"},
      {"measurement": "SRE-luciferase activity", "setting": "[1]", "result": "reduced the level of luciferase activity"}
    ]}
  ]
}
